From PMC12621043, “Un-LOK-ing a New Approach for Conformational Selective Targeting of STK10 (LOK)” (ACS Medicinal Chemistry Letters, 2025)

What was measured:
OSR1A = molecular target: T1, OSR1A (Homo sapiens, UniProt O95747); test: DSF Tm panel; type: binding; conditions: 10 μM compound
T1 construct: purchased in-house DSF kinase panel (SGC-style construct names; the trailing letter is the construct ID)

SLK [1] = molecular target: T2, SLK (Homo sapiens, UniProt Q9H2G2); test: DSF Tm panel; type: binding; design: purchased in-house DSF kinase panel (SGC-style construct names; the trailing letter is the construct ID); conditions: 10 μM compound
MAPK13A = molecular target: T3, MAPK13A (Homo sapiens, UniProt O15264); test: DSF Tm panel; type: binding; conditions: 10 μM compound
T3 construct: purchased in-house DSF kinase panel (SGC-style construct names; the trailing letter is the construct ID)
T3 sequence (O15264 1-365): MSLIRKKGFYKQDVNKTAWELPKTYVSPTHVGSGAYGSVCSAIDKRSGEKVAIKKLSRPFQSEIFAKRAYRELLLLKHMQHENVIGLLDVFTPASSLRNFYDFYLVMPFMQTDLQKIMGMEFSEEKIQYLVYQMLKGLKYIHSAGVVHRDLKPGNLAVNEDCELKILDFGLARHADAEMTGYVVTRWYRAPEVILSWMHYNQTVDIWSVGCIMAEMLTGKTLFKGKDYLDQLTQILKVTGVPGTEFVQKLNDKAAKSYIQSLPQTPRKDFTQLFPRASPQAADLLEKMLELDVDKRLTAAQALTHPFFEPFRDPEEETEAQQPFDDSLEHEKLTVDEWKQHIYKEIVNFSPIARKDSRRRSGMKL

SLK [2] = molecular target: T2, SLK; test: PhosphoSens in vitro activity assay; type: biochemical; conditions: ATP 150 μM
NEK1A = molecular target: T4, NEK1A (Homo sapiens, UniProt Q96PY6); test: DSF Tm panel; type: binding; conditions: 10 μM compound
T4 construct: purchased in-house DSF kinase panel (SGC-style construct names; the trailing letter is the construct ID)
T4 sequence (Q96PY6 1-328): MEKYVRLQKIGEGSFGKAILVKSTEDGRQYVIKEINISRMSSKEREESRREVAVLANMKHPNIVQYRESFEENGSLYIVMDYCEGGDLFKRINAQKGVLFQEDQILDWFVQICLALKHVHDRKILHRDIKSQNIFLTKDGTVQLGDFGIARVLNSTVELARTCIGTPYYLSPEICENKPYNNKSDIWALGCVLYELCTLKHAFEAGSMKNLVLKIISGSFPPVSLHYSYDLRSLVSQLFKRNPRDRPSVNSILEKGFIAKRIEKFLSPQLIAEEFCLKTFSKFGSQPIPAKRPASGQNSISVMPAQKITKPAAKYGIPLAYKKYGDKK

STK3 (STK3A) = molecular target: T5, STK3 (STK3A) (Homo sapiens, UniProt Q13188); test: DSF Tm panel; type: binding; conditions: 10 μM compound
T5 construct: purchased in-house DSF kinase panel (SGC-style construct names; the trailing letter is the construct ID)
T5 sequence (Q13188 16-313): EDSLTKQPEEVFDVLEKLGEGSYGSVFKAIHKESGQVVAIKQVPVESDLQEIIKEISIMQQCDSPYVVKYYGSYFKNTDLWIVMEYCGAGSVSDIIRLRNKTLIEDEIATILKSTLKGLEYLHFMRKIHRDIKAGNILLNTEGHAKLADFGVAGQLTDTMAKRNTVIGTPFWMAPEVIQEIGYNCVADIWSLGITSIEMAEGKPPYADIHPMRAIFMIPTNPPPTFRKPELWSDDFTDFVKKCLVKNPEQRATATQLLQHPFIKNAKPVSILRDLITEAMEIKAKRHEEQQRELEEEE

MAPK15A (MAPK15HSD) = molecular target: T6, MAPK15A (MAPK15HSD) (Homo sapiens, UniProt Q8TD08); test: DSF Tm panel; type: binding; conditions: 10 μM compound
T6 sequence (Q8TD08 13-304 limits assumed): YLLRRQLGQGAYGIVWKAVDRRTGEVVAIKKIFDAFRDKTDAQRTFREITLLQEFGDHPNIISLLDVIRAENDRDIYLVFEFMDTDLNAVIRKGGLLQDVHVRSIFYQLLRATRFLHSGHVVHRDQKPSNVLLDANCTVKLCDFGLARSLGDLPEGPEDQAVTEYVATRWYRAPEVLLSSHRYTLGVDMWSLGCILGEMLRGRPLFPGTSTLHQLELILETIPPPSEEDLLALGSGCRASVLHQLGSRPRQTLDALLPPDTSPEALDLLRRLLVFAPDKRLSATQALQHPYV

MAP2K6A = molecular target: T7, MAP2K6A (Homo sapiens, UniProt P52564); test: DSF Tm panel; type: binding; conditions: 10 μM compound
T7 construct: purchased in-house DSF kinase panel (SGC-style construct names; the trailing letter is the construct ID)
T7 sequence (P52564 53-314): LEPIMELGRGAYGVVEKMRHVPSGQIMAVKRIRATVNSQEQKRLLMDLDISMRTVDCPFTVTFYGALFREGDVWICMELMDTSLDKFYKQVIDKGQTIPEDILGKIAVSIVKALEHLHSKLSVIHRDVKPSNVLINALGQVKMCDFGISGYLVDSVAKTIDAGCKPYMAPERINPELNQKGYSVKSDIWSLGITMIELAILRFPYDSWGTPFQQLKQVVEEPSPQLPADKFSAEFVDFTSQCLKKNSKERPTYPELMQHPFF

EPHA2 (EPHA2A) = molecular target: T8, EPHA2 (EPHA2A) (Homo sapiens, UniProt P29317); test: DSF Tm panel; type: binding; conditions: 10 μM compound
T8 construct: purchased in-house DSF kinase panel (SGC-style construct names; the trailing letter is the construct ID)
T8 sequence (P29317 596-900): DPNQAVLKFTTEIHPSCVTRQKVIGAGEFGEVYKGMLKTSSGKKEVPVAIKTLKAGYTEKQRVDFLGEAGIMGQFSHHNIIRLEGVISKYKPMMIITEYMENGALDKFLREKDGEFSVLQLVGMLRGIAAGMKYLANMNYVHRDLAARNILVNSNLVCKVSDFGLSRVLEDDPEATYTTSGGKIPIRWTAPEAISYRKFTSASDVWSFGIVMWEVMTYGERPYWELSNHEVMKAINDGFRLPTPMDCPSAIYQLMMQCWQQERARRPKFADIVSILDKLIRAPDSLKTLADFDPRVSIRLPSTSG

DAPK1 (DAPK1A) = molecular target: T9, DAPK1 (DAPK1A) (Homo sapiens, UniProt P53355); test: DSF Tm panel; type: binding; conditions: 10 μM compound
T9 construct: purchased in-house DSF kinase panel (SGC-style construct names; the trailing letter is the construct ID)

STK10 = molecular target: T10, STK10 (Homo sapiens, UniProt O94804); test: DSF Tm panel; type: binding; conditions: 10 μM compound
T10 construct: purchased in-house DSF kinase panel (SGC-style construct names; the trailing letter is the construct ID)

AKT3A = molecular target: T11, AKT3A (Homo sapiens, UniProt Q9Y243); test: DSF Tm panel; type: binding; conditions: 10 μM compound
T11 construct: purchased in-house DSF kinase panel (SGC-style construct names; the trailing letter is the construct ID)

PIM1 (PIM1A) = molecular target: T12, PIM1 (PIM1A) (Homo sapiens, UniProt P11309); test: DSF Tm panel; type: binding; conditions: 10 μM compound
T12 construct: purchased in-house DSF kinase panel (SGC-style construct names; the trailing letter is the construct ID)
T12 sequence (P11309 whole entry): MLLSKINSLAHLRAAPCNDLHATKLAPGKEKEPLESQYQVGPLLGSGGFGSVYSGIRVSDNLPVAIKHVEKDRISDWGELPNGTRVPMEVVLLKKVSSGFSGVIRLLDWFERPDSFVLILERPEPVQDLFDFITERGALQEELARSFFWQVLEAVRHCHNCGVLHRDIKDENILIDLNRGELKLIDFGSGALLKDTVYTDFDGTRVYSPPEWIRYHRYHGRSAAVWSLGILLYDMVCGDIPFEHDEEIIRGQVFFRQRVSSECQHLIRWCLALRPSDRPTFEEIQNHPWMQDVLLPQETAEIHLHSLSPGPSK

T1 sequence (O95747 17-291): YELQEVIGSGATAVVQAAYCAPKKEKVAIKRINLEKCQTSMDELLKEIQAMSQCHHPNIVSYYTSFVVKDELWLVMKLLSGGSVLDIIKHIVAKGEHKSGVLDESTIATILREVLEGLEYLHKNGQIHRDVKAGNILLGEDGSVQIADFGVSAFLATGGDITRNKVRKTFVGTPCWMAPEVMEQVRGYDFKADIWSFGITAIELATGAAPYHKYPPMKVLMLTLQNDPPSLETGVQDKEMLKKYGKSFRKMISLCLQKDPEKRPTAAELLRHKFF
T11 sequence (Q9Y243 148-479): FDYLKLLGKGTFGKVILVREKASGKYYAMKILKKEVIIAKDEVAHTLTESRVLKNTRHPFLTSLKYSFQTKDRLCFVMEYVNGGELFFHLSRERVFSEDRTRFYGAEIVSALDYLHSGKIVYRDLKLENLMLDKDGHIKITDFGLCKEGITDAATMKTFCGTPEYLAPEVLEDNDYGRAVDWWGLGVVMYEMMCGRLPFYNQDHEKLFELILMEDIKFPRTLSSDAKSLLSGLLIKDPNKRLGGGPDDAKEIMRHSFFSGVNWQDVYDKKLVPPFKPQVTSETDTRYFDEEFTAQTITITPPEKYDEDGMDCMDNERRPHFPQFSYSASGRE
T9 sequence (P53355 1-285): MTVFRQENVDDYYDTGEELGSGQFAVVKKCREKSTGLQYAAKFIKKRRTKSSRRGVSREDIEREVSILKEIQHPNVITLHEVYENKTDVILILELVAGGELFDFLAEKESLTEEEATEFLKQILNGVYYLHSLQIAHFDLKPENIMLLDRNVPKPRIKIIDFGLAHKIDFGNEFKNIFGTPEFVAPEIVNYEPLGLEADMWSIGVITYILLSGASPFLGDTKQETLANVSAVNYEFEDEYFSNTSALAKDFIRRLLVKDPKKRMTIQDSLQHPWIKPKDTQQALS
T10 sequence (O94804 18-317 limits assumed): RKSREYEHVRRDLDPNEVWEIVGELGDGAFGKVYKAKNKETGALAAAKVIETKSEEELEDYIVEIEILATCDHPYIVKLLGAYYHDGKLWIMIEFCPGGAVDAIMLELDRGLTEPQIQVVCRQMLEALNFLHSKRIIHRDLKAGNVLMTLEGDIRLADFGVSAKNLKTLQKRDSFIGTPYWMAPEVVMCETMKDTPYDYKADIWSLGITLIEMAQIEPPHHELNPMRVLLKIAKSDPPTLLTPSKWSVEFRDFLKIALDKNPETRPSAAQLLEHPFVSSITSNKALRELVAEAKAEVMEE

SMILES | ΔTm at 10 µM (OSR1A) | ΔTm at 10 µM (SLK [1]) | ΔTm at 10 µM (MAPK13A) | IC50 (SLK [2]) | ΔTm at 10 µM (NEK1A) | ΔTm at 10 µM (STK3 (STK3A)) | ΔTm at 10 µM (MAP2K6A) | ΔTm at 10 µM (EPHA2 (EPHA2A)) | ΔTm at 10 µM (DAPK1 (DAPK1A)) | ΔTm at 10 µM (STK10) | ΔTm at 10 µM (AKT3A) | ΔTm at 10 µM (PIM1 (PIM1A)) | ΔTm at 10 µM (MAPK15A (MAPK15HSD))
O=C(NCc1ccc(Cl)cc1)Nc1ccc2cc1OCCOCCNc1ccn3ncc-2c3n1 [compound 19] | 0.7 °C | 5.2 °C | 0.6 °C | 7.16 ± 1.12 µM | -0.2 °C | 6.7 °C | 1.1 °C | 0.2 °C | -0.1 °C | 10 °C | -0.4 °C | 1.8 °C | 1.8 °C
O=C(NCc1ccc(Cl)cc1F)Nc1ccc2cc1OCCOCCNc1ccn3ncc-2c3n1 [compound 21] | 1.6 °C | 5.7 °C | 0.6 °C | 8.88 ± 1.41 µM | 0.7 °C | 6.9 °C | 1.3 °C | 0.5 °C | 0.3 °C | 7.3 °C | -0.3 °C | 2.8 °C | 1.8 °C
O=C(NCc1ccccc1)Nc1ccc2cc1OCCOCCNc1ccn3ncc-2c3n1 [compound 16] | 0.5 °C | 4.4 °C | 0.1 °C | 9.36 ± 1.77 µM | 0.1 °C | 5.9 °C | 1.4 °C | 0.8 °C | 1.3 °C | 6.9 °C | 0 °C | 1.2 °C | 4.9 °C

Second part, led by results:

ΔTm at 10 µM (OSR1A) | ΔTm at 10 µM (SLK [1]) | ΔTm at 10 µM (MAPK13A) | IC50 (SLK [2]) | ΔTm at 10 µM (NEK1A) | ΔTm at 10 µM (STK3 (STK3A)) | ΔTm at 10 µM (MAP2K6A) | ΔTm at 10 µM (EPHA2 (EPHA2A)) | ΔTm at 10 µM (DAPK1 (DAPK1A)) | ΔTm at 10 µM (STK10) | ΔTm at 10 µM (AKT3A) | ΔTm at 10 µM (PIM1 (PIM1A)) | SMILES | ΔTm at 10 µM (MAPK15A (MAPK15HSD))
1.5 °C | 2.4 °C | -0.3 °C | > 20 µM | -0.1 °C | 3.9 °C | 1.1 °C | 0.5 °C | 0.5 °C | 6.7 °C | 0.9 °C | 1.6 °C | COc1cc(CNC(=O)Nc2ccc3cc2OCCOCCNc2ccn4ncc-3c4n2)ccc1F [compound 33] | 3.3 °C
1.2 °C | 2.1 °C | -0.1 °C | > 20 µM | -0.2 °C | 3.7 °C | 0.9 °C | 0.4 °C | 0.1 °C | 7.1 °C | 0.2 °C | 1 °C | COc1cccc(CNC(=O)Nc2ccc3cc2OCCOCCNc2ccn4ncc-3c4n2)c1 [compound 30] | 2.3 °C
